Drawing on patent US20230203043A1, “NOVEL IMIDAZOPYRAZINE DERIVATIVES” (Hoffmann-La Roche Inc., priority 2020, published 2023), this text covers IC90 for 18 compounds.

For this assay, the system named is Acinetobacter baumannii ATCC17961. The assay can be described thus: Antimicrobial susceptibility testing: 90% growth inhibitory concentration (IC90) determination in Iso-Sensitest broth, OD600 growth. The format is cell-based. Summed up: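 Growth inhibition is calculated during the logarithmic phase from OD600 readings taken every 20 minutes across 16 h at 35±2° C. Bacteria at ~5×10^(5) CFU/ml face twofold dilution series (e.g. 50 to 0.097 μM final).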

Setting [1] is: Acinetobacter baumannii, ATCC17961, 16 h, strain ATCC 17961, OD600 growth over 16 h, read-out: A. baumannii ATCC 17961 IC90.
Where [2] appears, read: Acinetobacter baumannii, ATCC17961, 16 h, read-out: A. baumannii ATCC 17961 IC90 (uM), strain ATCC 17961, OD600 growth over 16 h.

The structures appear in SMILES notation. Counter-ions that a name gives are not always drawn. Like-named read-outs stand apart in the source and are kept apart here.

Turning to `CN(CCN)C(=O)c1ccc(Nc2nccn3c(-c4c[nH]nc4C(F)(F)F)cnc23)cc1Cl` [Example 322, N-(2-aminoethyl)-2-chloro-N-methyl-4-[[3-[3-(trifluoromethyl)-1H-pyrazol-4-yl]imidazo[1,2-a]pyrazin-8-yl]amino]benzamide], the IC90 under setting [1] was determined as 0.97 µM.
On to `Cc1cc(Nc2nccn3c(-c4cn(CC#N)nc4C(F)(F)F)cnc23)cc(F)c1C(=O)N1CCN(C(=O)[C@H](C)N)CC1` [Example 682, 2-(4-(8-((4-(4-(L-alanyl)piperazine-1-carbonyl)-3-fluoro-5-methylphenyl)amino)imidazo[1,2-a]pyrazin-3-yl)-3-(trifluoromethyl)-1H-pyrazol-1-yl) acetonitrile formate], for which, under setting [2], the 90% effect concentration (IC90) is 0.329 µM.
As for `Cc1cc(Nc2nccn3c(-c4cn(CC(F)F)nc4C(F)(F)F)cnc23)cc(F)c1C(=O)N[C@H](C)CNC(=O)C1CCNCC1` [Example 705, (R)-N-(2-(4-((3-(1-(2,2-difluoroethyl)-3-(trifluoromethyl)-1H-pyrazol-4-yl)imidazo[1,2-a]pyrazin-8-yl)amino)-2-fluoro-6-methylbenzamido)propyl)piperidine-4-carboxamide], the IC90 under setting [1] was found to be 0.391 µM.
On the same count and under the same terms, the value for `CCc1cc(Nc2nccn3c(-c4cn(CC(F)F)nc4C(F)F)cnc23)ccc1C(=O)N1CCN(C(=O)C2CCNCC2)CC1` [Example 742, (4-(4-((3-(1-(2,2-difluoroethyl)-3-(difluoromethyl)-1H-pyrazol-4-yl)imidazo[1,2-a]pyrazin-8-yl)amino)-2-ethylbenzoyl)piperazin-1-yl)(piperidin-4-yl) methanone] was 0.53 µM; that for `CCc1cc(Nc2nccn3c(-c4cn(COC)nc4C(F)F)cnc23)ccc1C(=O)N1CCN(C(=O)C2CC(O)CN2)CC1` (stereo not drawn) [Example 798, (4-(4-((3-(3-(difluoromethyl)-1-(methoxymethyl)-1H-pyrazol-4-yl)imidazo[1,2-a]pyrazin-8-yl)amino)-2-ethylbenzoyl)piperazin-1-yl)(4-hydroxypyrrolidin-2-yl)methanone] was 2.36 µM.
Same read-out and setting: the value for `Cc1cc(Nc2nccn3c(-c4cn(CCF)nc4C(F)(F)F)cnc23)cc(F)c1C(=O)N[C@H](C)CN` [Example 735, (R)-N-(1-aminopropan-2-yl)-2-fluoro-4-((3-(1-(2-fluoroethyl)-3-(trifluoromethyl)-1H-pyrazol-4-yl)imidazo[1,2-a]pyrazin-8-yl)amino)-6-methylbenzamide] was 0.49 µM.
With `C[C@@H](NC(=O)c1ccc(Nc2nccn3c(-c4c[nH]nc4C(F)(F)F)cnc23)cc1Cl)C(=O)N1CC[C@H](N)C1` [Example 94, N-[(2R)-1-[(3S)-3-aminopyrrolidin-1-yl]-1-oxopropan-2-yl]-2-chloro-4-[[3-[3-(trifluoromethyl)-1H-pyrazol-4-yl]imidazo[1,2-a]pyrazin-8-yl]amino]benzamide formate], under setting [2], the concentration for an effect of 90% (IC90) turned out to be 1.24 µM.
`N#CCn1cc(-c2cnc3c(Nc4ccc(C(=O)N5CC(NC(=O)[C@@H]6C[C@@H](O)CN6)C5)c(Cl)c4)nccn23)c(C(F)(F)F)n1` [Example 173, (2S,4R)-N-[1-[2-chloro-4-[[3-[1-(cyanomethyl)-3-(trifluoromethyl)pyrazol-4-yl]imidazo[1,2-a]pyrazin-8-yl]amino]benzoyl]azetidin-3-yl]-4-hydroxypyrrolidine-2-carboxamide]: the IC90 under setting [1] came out at 1.11 µM.
For `CCc1cc(Nc2nccn3c(-c4cn(CC(F)F)nc4C(F)(F)F)cnc23)ccc1C(=O)NCC(=O)NC1CC(N)C1` (stereo not drawn) [Example 642, N-[2-[(3-aminocyclobutyl)amino]-2-oxo-ethyl]-4-[[3-[1-(2,2-difluoroethyl)-3-(trifluoromethyl)pyrazol-4-yl]imidazo[1,2-a]pyrazin-8-yl]amino]-2-ethyl-benzamide formate], the IC90 under setting [2] came out at 0.232 µM.
Regarding `CCc1cc(Nc2nccn3c(-c4cn(C5CCCC5)nc4C(F)(F)F)cnc23)ccc1C(=O)NCCOCCN` [Example 26, N-[2-(2-aminoethoxy)ethyl]-4-[[3-[1-cyclopentyl-3-(trifluoromethyl)pyrazol-4-yl]imidazo[1,2-a]pyrazin-8-yl]amino]-2-ethylbenzamide hydrochloride], the IC90 under setting [1] turned out to be 0.282 µM.
With `C[C@H](O)CNC(=O)c1ccc(Nc2nccn3c(-c4cn(CC#N)nc4C(F)(F)F)cnc23)cc1Cl` [Example 240, 2-chloro-4-[[3-[1-(cyanomethyl)-3-(trifluoromethyl)pyrazol-4-yl]imidazo[1,2-a]pyrazin-8-yl]amino]-N-[(2S)-2-hydroxypropyl] benzamide], for the setting “strain ATCC 17961, OD600 growth over 16 h, read-out: A. baumannii ATCC 17961 IC90”, the IC90 was found to be 0.253 µM.
Take `CCc1cc(Nc2nccn3c(-c4cn(CCF)nc4C(F)(F)F)cnc23)ccc1C(=O)NCCOCC(C)(C)N` [Example 54, N-[2-(2-amino-2-methylpropoxy)ethyl]-2-ethyl-4-[[3-[1-(2-fluoroethyl)-3-(trifluoromethyl)pyrazol-4-yl]imidazo[1,2-a]pyrazin-8-yl]amino]benzamide]: under setting [1], the IC90 is 0.162 µM.
On to `NC12CC(NC(=O)c3ccc(Nc4nccn5c(-c6c[nH]nc6C(F)(F)F)cnc45)cc3Cl)(C1)C2` [Example 105, N-(3-amino-1-bicyclo[1.1.1]pentanyl)-2-chloro-4-[[3-[3-(trifluoromethyl)-1H-pyrazol-4-yl]imidazo[1,2-a]pyrazin-8-yl]amino]benzamide], for which the IC90 under setting [1] is 1.56 µM.
The same measure, in the same setting: the value for `O=C(CN1CCN(C(=O)c2ccc(Nc3nccn4c(-c5cn(CC(F)F)nc5C(F)(F)F)cnc34)cc2Cl)CC1)N[C@H]1CCNC1` [Example 600, (S)-2-(4-(2-chloro-4-((3-(1-(2,2-difluoroethyl)-3-(trifluoromethyl)-1H-pyrazol-4-yl)imidazo[1,2-a]pyrazin-8-yl)amino)benzoyl)piperazin-1-yl)-N-(pyrrolidin-3-yl) acetamide formate] was 0.517 µM.
As for `CNCC1(O)CCN(C(=O)c2ccc(Nc3nccn4c(-c5cn(CC#N)nc5C(F)(F)F)cnc34)cc2Cl)CC1` [Example 14, 2-[4-[8-[3-chloro-4-[4-hydroxy-4-(methylaminomethyl)piperidine-1-carbonyl]anilino]imidazo[1,2-a]pyrazin-3-yl]-3-(trifluoromethyl)pyrazol-1-yl]acetonitrile formate], the IC90 under setting [2] amounted to 0.141 µM.
Regarding `C[C@@H](NC(=O)c1ccc(Nc2nccn3c(-c4c[nH]nc4C(F)(F)F)cnc23)cc1Cl)C(=O)NC1CC(N)C1` (stereo partly drawn) [Example 92, N-[(2R)-1-[(3-aminocyclobutyl)amino]-1-oxopropan-2-yl]-2-chloro-4-[[3-[3-(trifluoromethyl)-1H-pyrazol-4-yl]imidazo[1,2-a]pyrazin-8-yl]amino]benzamide formate], the IC90 under setting [2] stood at 0.947 µM.
Regarding `C#CCn1cc(-c2cnc3c(Nc4ccc(C(=O)NCCOCCN)c(C)c4)nccn23)c(C(F)(F)F)n1` [Example 16, N-[2-(2-aminoethoxy)ethyl]-2-methyl-4-[[3-[1-prop-2-ynyl-3-(trifluoromethyl)pyrazol-4-yl]imidazo[1,2-a]pyrazin-8-yl]amino]benzamide], the IC90 under setting [1] was 0.069 µM.
The same measure, in the same setting: under `N#CCn1cc(-c2cnc3c(Nc4ccc(C(=O)N5CC(NC(=O)N[C@H]6CCNC6)C5)c(Cl)c4)nccn23)c(C(F)(F)F)n1` [Example 172, 1-[1-[2-chloro-4-[[3-[1-(cyanomethyl)-3-(trifluoromethyl)pyrazol-4-yl]imidazo[1,2-a]pyrazin-8-yl]amino]benzoyl]azetidin-3-yl]-3-[(3S)-pyrrolidin-3-yl]urea] stands 0.832 µM.
